The text below walks through data of patent US7446199B2, “Compositions useful as inhibitors of protein kinases” (Vertex Pharmaceuticals Incorporated, priority 2003, dated 2008).

Common to all, as to assay type: biochemical
One assay deals with SYK (Homo sapiens, UniProt P43405). The assay can be described thus: SYK enzyme assay, coupled enzyme assay. Particulars: 200 μM ATP, 4 μM poly Gly-Tyr peptide, 30° C. How it is done: Compounds were screened for their ability to inhibit SYK using a standard coupled enzyme assay (Fox et al., Protein Sci. 1998, 7, 2249). Reactions were carried out in 100 mM HEPES (pH 7.5), 10 mM MgCl2, 25 mM NaCl, 1 mM DTT and 1.5% DMSO. Final substrate concentrations in the assay were 200 μM ATP (Sigma chemical Co.) and 4 μM poly Gly-Tyr peptide (Sigma Chemical Co.). Assays were carried out at 30° C. and 200 nM SYK. Final concentrations of the components of the coupled enzyme system were 2.5 mM phosphoenolpyruvate, 300 μM NADH, 30 μg/ml pyruvate kinase and 10 μg/ml lactate dehydrogenase.
An assay stock buffer solution was prepared containing all of the reagents listed above, with the exception of SYK, DTT, and the test compound of interest of the present invention. 56 μl of the test reaction was placed in a 96 well plate followed by the addition of 1 μl of 2 mM DMSO stock containing the test compound of the present invnetion (final compound concentration 30 μM). The plate was pre-incubated for ˜10 minutes at 30° C. and the reaction initiated by the addition of 10 μl of enzyme (final concentration 25 nM). Rates of reaction were obtained using a BioRad Ultramark plate reader (Hercules, Calif.) over a 5 minute read time at 30° C., and Ki values for the compounds of the present invention were determined according to standard methods.

The target in another assay is T1, Aurora-2 (Homo sapiens, UniProt O14965).
T1 construct: addition of 10 μL of Aurora-2 stock solution to give a final concentration of 70 nM
T1 sequence (O14965 1-403): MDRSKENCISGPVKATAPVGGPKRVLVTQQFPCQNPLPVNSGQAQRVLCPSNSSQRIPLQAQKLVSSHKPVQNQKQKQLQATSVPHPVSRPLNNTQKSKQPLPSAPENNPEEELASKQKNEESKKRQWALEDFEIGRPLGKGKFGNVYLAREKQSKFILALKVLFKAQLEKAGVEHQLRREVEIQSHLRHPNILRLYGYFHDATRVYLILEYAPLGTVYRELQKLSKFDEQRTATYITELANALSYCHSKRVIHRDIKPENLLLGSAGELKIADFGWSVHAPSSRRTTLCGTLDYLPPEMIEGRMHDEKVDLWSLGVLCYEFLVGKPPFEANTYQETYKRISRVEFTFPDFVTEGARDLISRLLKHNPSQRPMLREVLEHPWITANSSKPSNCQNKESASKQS
Nature of the assay: Inhibition of AUR-2, coupled enzyme assay. Particulars: 70 nM Aurora-2, 800 μM peptide LRRASLG, 30° C. The method, then:
Compounds are screened in the following manner for their ability to inhibit Aurora-2 using a standard coupled enzyme assay (Fox et al. (1998) Protein Sci 7, 2249). To an assay stock buffer solution containing 0.1M HEPES 7.5, 10 mM MgCl2, 1 mM DTT, 25 mM NaCl, 2.5 mM phosphoenolpyruvate, […], […], […], and 800 μM peptide (LRRASLG, American Peptide, Sunnyvale, Calif.) is added a DMSO solution of a compound of the present invention to a final concentration of 30 μM. The resulting mixture is incubated at 30° C. for 10 min. The reaction was initiated by the addition of 10 μL of Aurora-2 stock solution to give a final concentration of 70 nM in the assay. The rates of reaction are obtained by monitoring absorbance at 340 nm over a 5 minute read time at 30° C. using a BioRad Ultramark plate reader (Hercules, Calif.). The Ki values are determined from the rate data as a function of inhibitor concentration.

The target in the next assay is T2, c-KIT (Homo sapiens, UniProt P10721).
T2 construct: 0.02% BSA and 25 nM c-KIT
The assay can be described thus: Inhibition of c-KIT, radiometric filter-binding assay. Particulars: 700 μM ATP, 0.5 mg/mL pE4Y, room temperature. The procedure, abridged:
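Radiometric filter-binding: 25 nM c-KIT (enzyme in the Solution 2 mix) with poly(Glu,Tyr) 4:1 substrate at 0.5 mg/mL and [γ-^33P]ATP at 700 μM (both final), in HEPES pH 7.5/MgCl2/NaCl/DTT/BSA with 2.5% DMSO. Incubated 20 min at room temperature, stopped with TCA, and ^33P incorporation counted on filters. 12-point titration, final compound typically 0.01-5 μM; IC50 or Ki from curve fit.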

As usually defined, the Ki is a measure of affinity in units of concentration, obtained from inhibition or displacement.

T2 sequence (P10721 26-976): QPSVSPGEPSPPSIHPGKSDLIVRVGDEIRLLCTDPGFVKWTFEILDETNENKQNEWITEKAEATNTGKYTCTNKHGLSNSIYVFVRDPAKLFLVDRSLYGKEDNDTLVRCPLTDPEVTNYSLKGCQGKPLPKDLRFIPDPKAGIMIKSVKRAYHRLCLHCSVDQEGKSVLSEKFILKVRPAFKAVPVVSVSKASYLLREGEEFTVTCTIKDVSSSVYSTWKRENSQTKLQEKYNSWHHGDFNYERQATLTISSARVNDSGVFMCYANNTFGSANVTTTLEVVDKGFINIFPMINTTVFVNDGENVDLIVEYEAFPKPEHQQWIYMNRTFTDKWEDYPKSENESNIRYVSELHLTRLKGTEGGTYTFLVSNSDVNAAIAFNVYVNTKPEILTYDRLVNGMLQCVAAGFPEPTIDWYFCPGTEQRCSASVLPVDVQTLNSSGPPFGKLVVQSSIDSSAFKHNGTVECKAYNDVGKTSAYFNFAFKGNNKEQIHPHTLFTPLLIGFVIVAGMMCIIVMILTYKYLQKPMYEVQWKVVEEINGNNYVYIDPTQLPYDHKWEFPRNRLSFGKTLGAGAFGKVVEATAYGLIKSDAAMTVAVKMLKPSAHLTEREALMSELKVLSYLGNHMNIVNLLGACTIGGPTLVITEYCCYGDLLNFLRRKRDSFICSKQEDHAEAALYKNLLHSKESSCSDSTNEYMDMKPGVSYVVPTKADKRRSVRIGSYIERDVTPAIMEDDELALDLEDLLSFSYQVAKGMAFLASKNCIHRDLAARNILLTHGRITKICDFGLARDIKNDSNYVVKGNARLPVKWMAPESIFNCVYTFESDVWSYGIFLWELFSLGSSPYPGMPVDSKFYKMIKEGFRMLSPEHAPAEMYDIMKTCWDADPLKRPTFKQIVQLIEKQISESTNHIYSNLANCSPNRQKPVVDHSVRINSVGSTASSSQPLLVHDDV

Regarding `Fc1cccc(-c2cnoc2-c2c[nH]c3ncccc23)c1F` [Compound 1, 3-[4-(2,3-Difluoro-phenyl)-isoxazol-5-yl]-1H-pyrrolo[2,3-b]pyridine], the Ki on SYK is 200 to 1000 nM; on Aurora-2 it was 200 to 1000 nM; at c-KIT, below 200 nM.
`Fc1cccc(-c2cnoc2-c2c[nH]c3ncc(Br)cc23)c1F` [Compound 37, 5-Bromo-3-[4-(2,3-difluoro-phenyl)-isoxazol-5-yl]-1H-pyrrolo[2,3-b]pyridine]: the Ki was 1000 to 12500 nM on SYK and below 200 nM at Aurora-2.
For `COc1cnc2[nH]cc(-c3oncc3-c3cccc(F)c3F)c2c1` [Compound 38, 3-[4-(2,3-Difluoro-phenyl)-isoxazol-5-yl]-5-methoxy-1H-pyrrolo[2,3-b]pyridine], the Ki on SYK is 1000 to 12500 nM; on Aurora-2 it was 200 to 1000 nM; at c-KIT it was below 200 nM.
Take `Fc1c(Cl)cccc1-c1cnoc1-c1c[nH]c2ncccc12` [Compound 42, 3-[4-(3-Chloro-2-fluoro-phenyl)-isoxazol-5-yl]-1H-pyrrolo[2,3-b]pyridine]: the inhibition constant Ki at SYK was in the range of 1000 to 12500 nM; at Aurora-2, 200 to 1000 nM.
For the molecule `Oc1cnc2[nH]cc(-c3oncc3-c3cccc(F)c3F)c2c1` [Compound 43, 3-[4-(2,3-Difluoro-phenyl)-isoxazol-5-yl]-1H-pyrrolo[2,3-b]pyridin-5-ol], the figures for the Ki on SYK, on Aurora-2 and on c-KIT were 200 to 1000 nM, 200 to 1000 nM and below 200 nM, respectively.
In the case of `CC(=O)Nc1cccc(-c2cnc3[nH]cc(-c4oncc4-c4cccc(F)c4F)c3c2)c1` [Compound 65, N-(3-{3-[4-(2,3-Difluoro-phenyl)-isoxazol-5-yl]-1H-pyrrolo[2,3-b]pyridin-5-yl}-phenyl)-acetamide], the inhibition constant Ki on SYK was 1000 to 12500 nM; on Aurora-2, below 200 nM; at c-KIT, below 200 nM.
Regarding `Fc1cccc(-c2cnoc2-c2c[nH]c3ncc(-c4ccc(N5CCNCC5)cc4)cc23)c1F` [Compound 68, 3-[4-(2,3-Difluoro-phenyl)-isoxazol-5-yl]-5-(4-piperazin-1-yl-phenyl)-1H-pyrrolo[2,3-b]pyridine], the inhibition constant (Ki) at SYK was 200 to 1000 nM; on Aurora-2 it was below 200 nM; on c-KIT, below 200 nM.
Turning to `CN1CCN(c2ccc(-c3cnc4[nH]cc(-c5oncc5-c5cccc(F)c5F)c4c3)cc2)CC1` [Compound 70, 3-[4-(2,3-Difluoro-phenyl)-isoxazol-5-yl]-5-[4-(4-methyl-piperazin-1-yl)-phenyl]-1H-pyrrolo[2,3-b]pyridine methanesulfonate], the inhibition constant Ki was 200 to 1000 nM on SYK, below 200 nM at Aurora-2 and below 200 nM at c-KIT.
As to `CN1CCN(c2ccc(-c3cnc4[nH]cc(-c5oncc5-c5cccc(F)c5F)c4c3)cn2)CC1` [Compound 71, 3-[4-(2,3-Difluoro-phenyl)-isoxazol-5-yl]-5-[6-(4-methyl-piperazin-1-yl)-pyridin-3-yl]-1H-pyrrolo[2,3-b]pyridine], the inhibition constant (Ki) at SYK is 1000 to 12500 nM; on Aurora-2, below 200 nM; at c-KIT it was below 200 nM.
For the molecule `Fc1cccc(-c2cnoc2-c2c[nH]c3ncc(-c4c[nH]cn4)cc23)c1F` [Compound 76, 3-[4-(2,3-Difluoro-phenyl)-isoxazol-5-yl]-5-(3H-imidazol-4-yl)-1H-pyrrolo[2,3-b]pyridine], the Ki at SYK was 1000 to 12500 nM; on Aurora-2, below 200 nM; on c-KIT, below 200 nM.
With `CN(C)Cc1ccnc(-c2cnc3[nH]cc(-c4oncc4-c4cccc(F)c4F)c3c2)c1` [Compound 82, (2-{3-[4-(2,3-Difluoro-phenyl)-isoxazol-5-yl]-1H-pyrrolo[2,3-b]pyridin-5-yl}-pyridin-4-ylmethyl)-dimethyl-amine], the results for the Ki at SYK, at Aurora-2 and on c-KIT were 1000 to 12500 nM, 200 to 1000 nM and below 200 nM, respectively.
For `Nc1cccc(-c2cnc3[nH]cc(-c4oncc4-c4cccc(F)c4F)c3c2)c1` [Compound 86, 3-{3-[4-(2,3-Difluoro-phenyl)-isoxazol-5-yl]-1H-pyrrolo [2,3-b]pyridin-5-yl}-phenylamine], in that order: 200 to 1000 nM, below 200 nM and below 200 nM.
As for `Nc1ccc(-c2cnc3[nH]cc(-c4oncc4-c4cccc(F)c4F)c3c2)cc1` [Compound 90, 4-{3-[4-(2,3-Difluoro-phenyl)-isoxazol-5-yl]-1H-pyrrolo [2,3-b]pyridin-5-yl}-phenylamine], the results for the Ki on SYK, at Aurora-2 and on c-KIT were 200 to 1000 nM, below 200 nM and below 200 nM, respectively.
With `CN(C)Cc1ccc(-c2cnc3[nH]cc(-c4oncc4-c4cccc(F)c4F)c3c2)cc1` [Compound 91, (4-{3-[4-(2,3-Difluoro-phenyl)-isoxazol-5-yl]-1H-pyrrolo[2,3-b]pyridin-5-yl}-benzyl)-dimethyl-amine], the figures for the inhibition constant Ki at SYK, on Aurora-2 and at c-KIT were 1000 to 12500 nM, 200 to 1000 nM and below 200 nM, respectively.
For `Fc1cccc(-c2cnoc2-c2c[nH]c3ncc(-c4ccc(CN5CCCC5)cc4)cc23)c1F` [Compound 93, 3-[4-(2,3-Difluoro-phenyl)-isoxazol-5-yl]-5-(4-pyrrolidin-1-ylmethyl-phenyl)-1H-pyrrolo[2,3-b]pyridine], in that order: 1000 to 12500 nM, below 200 nM and below 200 nM.
Turning to `CS(=O)(=O)Nc1ccc(-c2cnc3[nH]cc(-c4oncc4-c4cccc(F)c4F)c3c2)cc1` [Compound 98, N-(4-{3-[4-(2,3-Difluoro-phenyl)-isoxazol-5-yl]-1H-pyrrolo[2,3-b]pyridin-5-yl}-phenyl)-methane sulfonamide], the results for the Ki on SYK and on Aurora-2 were 1000 to 12500 nM and below 200 nM, respectively.
`Clc1cccc(-c2cnoc2-c2c[nH]c3ncc(-c4cccnc4)cc23)c1Cl` [Compound 99, 3-[4-(2,3-Dichloro-phenyl)-isoxazol-5-yl]-5-pyridin-3-yl-1H-pyrrolo[2,3-b]pyridine]: the inhibition constant (Ki) at SYK is 200 to 1000 nM; at Aurora-2 it was below 200 nM; on c-KIT, below 200 nM.
As for `Cc1noc(-c2c[nH]c3ncccc23)c1-c1cccc(F)c1F` [Compound 134, 3-[4-(2,3-Difluoro-phenyl)-3-methyl-isoxazol-5-yl]-1H-pyrrolo[2,3-b]pyridine], the figures for the Ki on SYK and at Aurora-2 were 1000 to 12500 nM and 200 to 1000 nM, respectively.
